# Assay results taken from patent US7692030B2, “Conjugates of artemisinin-related endoperoxides and hydrazone derivatives for the treatment of cancer” (University of Washington, priority 2006, dated 2010).
# Tests used:
# MDA-MB-231/ATCC = assay: NCI DTP human tumor cell line screen (SRB); assay type: cell-based; conditions: Breast Cancer, 10 μM, 48 h
# Description: (§1) Representative compounds of the invention, prepared as described in EXAMPLES 1-6, were submitted to the Developmental Therapeutics Program of the United States National Cancer Institute (NCl) to screen for anti-cancer activity. The anti-cancer activities of the six compounds were tested against approximately 60 human tumor cell lines representing leukemia, melanoma, and cancers of the lung, colon, breast, ovary, kidney, prostate, and brain. The following screening methodology was provided by the NCl. […] For experimental screens, cells were inoculated into 96 well microtiter plates in 100 μL at plating densities ranging from 5,000 to 40,000 cells/well depending on the doubling time of individual cell lines. After cell inoculation, the microtiter plates were incubated at 37° C., 5% carbon dioxide, 95% air and 100% relative humidity for 24 hours prior to addition of the compounds. After 24 hours of incubation, two plates of each cell line were fixed in situ with trichloroacetic acid (TCA) to represent a measurement of the cell population for each cell line at the time of compound addition (Tz). The compounds were solubilized in dimethyl sulfoxide at 400-fold the desired final maximum test concentration and stored frozen prior to use. At the time of drug addition, frozen aliquots of the compounds thawed and diluted with complete medium containing 50 μg/ml gentamicin. Aliquots of 100 μl of these different compound dilutions were added to the appropriate microtiter wells already containing 100 μl of medium, resulting in the required final compound concentration of 10 μM. Following compound addition, the plates were incubated for an additional 48 h at 37° C., 5% carbon dioxide, 95% air, and 100% relative humidity. For adherent cells, the assay was terminated by the addition of cold TCA. Cells were fixed in situ by the gentle addition of 50 μl of cold 50% (w/v) TCA (final concentration, 10% TCA) and incubated for 60 minutes at 4° C. The supernatant was discarded, and the plates were washed five times with tap water and air dried. Sulforhodamine B (SRB) solution (100 μl) at 0.4% (w/v) in 1% acetic acid was added to each well, and plates were incubated for 10 minutes at room temperature. After staining, unbound dye was removed by washing five times with 1% acetic acid and the plates were air dried. Bound stain was subsequently solubilized with 10 mM trizma base, and the absorbance was read on an automated plate reader at a wavelength of 515 nm. For suspension cells, the methodology was the same except that the assay was terminated by fixing settled cells at the bottom of the wells by gently adding 50 μl of 80% TCA (final concentration, 16% TCA). Using the three absorbance measurements [time zero, (Tz), control growth, (C), and test growth in the presence of compound (Ti)], the percentage growth was calculated at each of the compound concentrations levels. Percentage growth inhibition was calculated with the following algorithms: [(Ti−Tz)/(C−Tz)]×100 for concentrations for which Ti>/=Tz [(Ti−Tz)/Tz]×100 for concentrations for which Ti<Tz The results of the NCl in vitro anticancer screening with six compounds against various human tumor cell lines are presented below in Tables 2-7. […] The growth percent mean, delta, and range for each compound are given below.
# SK-MEL-5 = assay: NCI DTP human tumor cell line screen (SRB); assay type: cell-based; conditions: Melanoma, 10 μM, 48 h
# Description: as §1
# SK-MEL-2 = assay: NCI DTP human tumor cell line screen (SRB); assay type: cell-based; conditions: Melanoma, 10 μM, 48 h
# Description: as §1
# OVCAR-8 = assay: NCI DTP human tumor cell line screen (SRB); assay type: cell-based; conditions: Ovarian Cancer, 10 μM, 48 h
# Description: as §1
# OVCAR-4 = assay: NCI DTP human tumor cell line screen (SRB); assay type: cell-based; conditions: Ovarian Cancer, 10 μM, 48 h
# Description: as §1
# NCI-H23 = assay: NCI DTP human tumor cell line screen (SRB); assay type: cell-based; conditions: Non-Small Cell Lung Cancer, 10 μM, 48 h
# Description: as §1
# NCI-H226 = assay: NCI DTP human tumor cell line screen (SRB); assay type: cell-based; conditions: Non-Small Cell Lung Cancer, 10 μM, 48 h
# Description: as §1
# EKVX = assay: NCI DTP human tumor cell line screen (SRB); assay type: cell-based; conditions: Non-Small Cell Lung Cancer, 10 μM, 48 h
# Description: as §1
# U251 = assay: NCI DTP human tumor cell line screen (SRB); assay type: cell-based; conditions: CNS Cancer, 10 μM, 48 h
# Description: as §1
# HOP-62 = assay: NCI DTP human tumor cell line screen (SRB); assay type: cell-based; conditions: Non-Small Cell Lung Cancer, 10 μM, 48 h
# Description: as §1
# CCRF-CEM = assay: NCI DTP human tumor cell line screen (SRB); assay type: cell-based; conditions: Leukemia, 10 μM, 48 h
# Description: as §1
# A498 = assay: NCI DTP human tumor cell line screen (SRB); assay type: cell-based; conditions: Renal Cancer, 10 μM, 48 h
# Description: as §1
# HT29 = assay: NCI DTP human tumor cell line screen (SRB); assay type: cell-based; conditions: Colon Cancer, 10 μM, 48 h
# Description: as §1
# SNB-19 = assay: NCI DTP human tumor cell line screen (SRB); assay type: cell-based; conditions: CNS Cancer, 10 μM, 48 h
# Description: as §1
# NCI-H460 = assay: NCI DTP human tumor cell line screen (SRB); assay type: cell-based; conditions: Non-Small Cell Lung Cancer, 10 μM, 48 h
# Description: as §1
# HCC-2998 = assay: NCI DTP human tumor cell line screen (SRB); assay type: cell-based; conditions: Colon Cancer, 10 μM, 48 h
# Description: as §1
# LOX IMVI = assay: NCI DTP human tumor cell line screen (SRB); assay type: cell-based; conditions: Melanoma, 10 μM, 48 h
# Description: as §1
# UO-31 = assay: NCI DTP human tumor cell line screen (SRB); assay type: cell-based; conditions: Renal Cancer, 10 μM, 48 h
# Description: as §1
# SF-295 = assay: NCI DTP human tumor cell line screen (SRB); assay type: cell-based; conditions: CNS Cancer, 10 μM, 48 h
# Description: as §1
# HS 578T = assay: NCI DTP human tumor cell line screen (SRB); assay type: cell-based; conditions: Breast Cancer, 10 μM, 48 h
# Description: as §1
# T-47D = assay: NCI DTP human tumor cell line screen (SRB); assay type: cell-based; conditions: Breast Cancer, 10 μM, 48 h
# Description: as §1
# RPMI-8226 = assay: NCI DTP human tumor cell line screen (SRB); assay type: cell-based; conditions: Leukemia, 10 μM, 48 h
# Description: as §1
# K-562 = assay: NCI DTP human tumor cell line screen (SRB); assay type: cell-based; conditions: Leukemia, 10 μM, 48 h
# Description: as §1
# HCT-15 = assay: NCI DTP human tumor cell line screen (SRB); assay type: cell-based; conditions: Colon Cancer, 10 μM, 48 h
# Description: as §1
# MCF7 = assay: NCI DTP human tumor cell line screen (SRB); assay type: cell-based; conditions: Breast Cancer, 10 μM, 48 h
# Description: as §1
# UACC-62 = assay: NCI DTP human tumor cell line screen (SRB); assay type: cell-based; conditions: Melanoma, 10 μM, 48 h
# Description: as §1
# TK-10 = assay: NCI DTP human tumor cell line screen (SRB); assay type: cell-based; conditions: Renal Cancer, 10 μM, 48 h
# Description: as §1
# OVCAR-3 = assay: NCI DTP human tumor cell line screen (SRB); assay type: cell-based; conditions: Ovarian Cancer, 10 μM, 48 h
# Description: as §1
# SK-MEL-28 = assay: NCI DTP human tumor cell line screen (SRB); assay type: cell-based; conditions: Melanoma, 10 μM, 48 h
# Description: as §1
# UACC-257 = assay: NCI DTP human tumor cell line screen (SRB); assay type: cell-based; conditions: Melanoma, 10 μM, 48 h
# Description: as §1
# OVCAR-5 = assay: NCI DTP human tumor cell line screen (SRB); assay type: cell-based; conditions: Ovarian Cancer, 10 μM, 48 h
# Description: as §1
# HL-60(TB) = assay type: cell-based, human; conditions: Leukemia, 10 μM, 48 h
# Description: The human tumor cell lines of the cancer screening panel were grown in RPMI 1640 medium containing 5% fetal bovine serum and 2 mM L-glutamine. For experimental screens, cells were inoculated into 96 well microtiter plates in 100 μL at plating densities ranging from 5,000 to 40,000 cells/well depending on the doubling time of individual cell lines. After cell inoculation, the microtiter plates were incubated at 37° C., 5% carbon dioxide, 95% air and 100% relative humidity for 24 hours prior to addition of the compounds.
SMILES,Growth Percent (MDA-MB-231/ATCC),Growth Percent (SK-MEL-5),Growth Percent (SK-MEL-2),Growth Percent (OVCAR-8),Growth Percent (OVCAR-4),Growth Percent (NCI-H23),Growth Percent (NCI-H226),Growth Percent (EKVX),Growth Percent (U251),Growth Percent (HOP-62),Growth Percent (CCRF-CEM),Growth Percent (A498),Growth Percent (HT29),Growth Percent (SNB-19),Growth Percent (NCI-H460),Growth Percent (HCC-2998),Growth Percent (LOX IMVI),Growth Percent (UO-31),Growth Percent (SF-295),Growth Percent (HS 578T),also measured
"CC1CCC2C(C)C(OCc3ccc(C(=O)NN=Cc4ccccc4O)o3)OC3OC4(C)CCC1C32OO4 (stereo not drawn) [ART-Furan-Sal, N′-(2-hydroxybenzylidene)-5-(dihydroxyartemisinin-methyl)-furan-2-carbohydrazide]",31.58%,−46.62%,−27.21%,17.07%,12.86%,17.54%,13.93%,25.37%,12.24%,12.94%,−23.63%,12.88%,22.40%,25.11%,−26.28%,5.37%,0.03%,−35.28%,12.70%,40.07%,Growth Percent (T-47D): 10.28%; Growth Percent (RPMI-8226): 13.00%; Growth Percent (K-562): 8.79%; Growth Percent (HCT-15): 30.86%; Growth Percent (MCF7): 1.18%; Growth Percent (UACC-62): −5.97%; Growth Percent (TK-10): 40.77%; Growth Percent (OVCAR-3): 30.23%; Growth Percent (SK-MEL-28): 16.46%; Growth Percent (UACC-257): 9.72%; Growth Percent (OVCAR-5): 28.70%; Growth Percent (HL-60(TB)): −43.79%
"CC1CCC2C(C)C(OCc3ccc(C(=O)NN=Cc4ccccc4)cc3)OC3OC4(C)CCC1C32OO4 (stereo not drawn) [ART-Phe-Bz, N′-(benzylidene)-4-(dihydroxyartemisinin-methyl)-phenyl carbohydrazide]",26.78%,2.01%,−3.22%,26.65%,18.29%,30.10%,29.10%,16.45%,36.35%,52.14%,6.71%,30.47%,18.46%,51.29%,32.58%,22.05%,8.89%,−21.11%,14.30%,34.12%,Growth Percent (T-47D): 11.51%; Growth Percent (RPMI-8226): 1.50%; Growth Percent (K-562): 7.86%; Growth Percent (HCT-15): 16.27%; Growth Percent (MCF7): 11.63%; Growth Percent (UACC-62): 24.51%; Growth Percent (TK-10): 19.78%; Growth Percent (OVCAR-3): 11.56%; Growth Percent (SK-MEL-28): 45.74%; Growth Percent (UACC-257): 25.96%; Growth Percent (OVCAR-5): 28.19%; Growth Percent (HL-60(TB)): −49.40%
"CC1CCC2C(C)C(OCc3ccc(C(=O)NN=Cc4ccccc4O)cc3)OC3OC4(C)CCC1C32OO4 (stereo not drawn) [ART-Phe-Sal, N′-(2-hydroxybenzylidene)-4-(dihydroxyartemisinin-methyl)-phenyl carbohydrazide]",47.38%,−56.71%,−20.76%,24.17%,17.87%,31.01%,10.80%,28.62%,17.18%,12.31%,−19.45%,0.33%,22.93%,27.53%,0.59%,37.90%,1.55%,−17.67%,−2.87%,29.71%,Growth Percent (T-47D): 34.12%; Growth Percent (RPMI-8226): 22.87%; Growth Percent (K-562): 8.87%; Growth Percent (HCT-15): 32.15%; Growth Percent (MCF7): 12.70%; Growth Percent (UACC-62): −17.63%; Growth Percent (TK-10): 20.96%; Growth Percent (OVCAR-3): 29.79%; Growth Percent (SK-MEL-28): 22.75%; Growth Percent (UACC-257): 22.90%; Growth Percent (OVCAR-5): 49.55%; Growth Percent (HL-60(TB)): −54.70%
